No end group written: not given here.
Experiments:
[1] = test system: Escherichia coli (ATCC 25922); assay type: cell-based; conditions: ATCC 25922, 4 h
Procedure: (§1) Specifically, each type of bacteria was cultured in 3% (w/v) TSB (tryptic soy broth) liquid medium at 37° C. and 200 rpm for 4 hours, and then further cultured under the same conditions for 3 hours to a concentration of 5×10^6 CFU/ml. Strain solutions were prepared by diluting each of the further cultured strains with SP buffer to a final concentration of 2×10^5 CFU/ml.
(§2) Then, the KU-5878 peptide at varying concentrations (0 μg/ml to 300 μg/ml) was dispensed into each well of a 96-well microplate, and 100 μl (1×10^5 CFU/ml) of each of the prepared strain solutions was added thereto, mixed therewith, and allowed to react with the peptide in an incubator at 37° C. for 1 hour.
(§3) In addition, 10 μl of each reaction solution of the peptide and the strain was plated on the TS agar plate at a constant size, and incubated in an incubator at 37° C. for 18 hours, and then colony formation on the plate was checked. The minimum bactericidal concentration was defined as the minimum concentration of the peptide at which no colony was formed, and the experimental results are shown in Table 2 below.

[2] = test system: Acinetobacter baumannii (ATCC 19606); assay type: cell-based; conditions: ATCC 19606, 4 h
Procedure: as §1, §2, §3

[3] = test system: Klebsiella pneumoniae (ATCC 13883); assay type: cell-based; conditions: ATCC 13883, 4 h
Procedure: as §1, §2, §3

[4] = test system: Streptomyces sindenensis (ATCC 12392); assay type: cell-based; conditions: ATCC 12392, 4 h
Procedure: as §1, §2, §3

[5] = test system: Enterococcus faecium (ATCC 19434); assay type: cell-based; conditions: ATCC 19434, 4 h
Procedure: as §1, §2, §3

[6] = test system: Bacillus subtilis (ATCC 6633); assay type: cell-based; conditions: ATCC 6633, 4 h
Procedure: as §1, §2, §3

[7] = test system: Enterococcus faecalis (ATCC 19433); assay type: cell-based; conditions: ATCC 19433, 4 h
Procedure: as §1, §2, §3

[8] = test system: Enterobacter aerogenes (ATCC 13048); assay type: cell-based; conditions: ATCC 13048, 4 h
Procedure: as §1, §2, §3

[9] = test system: Staphylococcus aureus, Pseudomonas aeruginosa, methicillin-resistant Staphylococcus aureus and multidrug-resistant Pseudomonas aeruginosa; assay: Bacteria remaining in the blood of infected mice after intravenous injection of the drug; assay type: in vivo, mice (C57BL/6); conditions: 10 mg/kg intravenous 1 hour after infection; blood 40 minutes after injection; compared with LL-37, magainin 2, daptomycin
Procedure: Specifically, Staphylococcus aureus, Pseudomonas aeruginosa, methicillin-resistant Staphylococcus aureus and multidrug-resistant Pseudomonas aeruginosa was cultured in 3% (w/v) TSB liquid medium at 37° C. and 200 rpm for 4 hours, and then further cultured under the same conditions for 3 hours to a concentration of 5×10^9 CFU/ml. Strain solutions were prepared by diluting each of the further cultured strains with PBS solution to a final concentration of 1×10^5 CFU/μl.
Next, 100 μl of each strain solution was injected intravenously (IV) into the tail vein of each of 10-week-old male mice (C57BL/6). After one hour, KU-5878 was intravenously injected at a concentration of 10 mg/kg. As a control, PBS was intravenously injected at a concentration of 10 mg/kg, and as a positive control, LL-37, magainin 2, or daptomycin was intravenously injected at a concentration of 10 mg/kg.
40 minutes after the intravenous injection of each drug, about 1 cm from the tail end of each mouse was cut using surgical scissors, and 10 μl of the blood at the end of the cut was collected and diluted in PBS. The diluted blood sample was plated on a previously prepared TSB agar plate and incubated in an incubator at 37° C. for 18 hours, and the formed colonies were counted for comparison.

KTMMQSGGTFGTFMAIGMGIR [KU-5878] was tested, and the “MBC value” [1] was 85 µg/mL, the “MBC value” [2] was 100 µg/mL and the “MBC value” [3] was 100 µg/mL. The “MBC value” [4] was 95 µg/mL, the “MBC value” [5] was 85 µg/mL and the “MBC value” [6] was 90 µg/mL. For the same sequence, the “MBC value” [7] was 85 µg/mL, the “MBC value” [8] was 90 µg/mL and the “number of bacteria remaining in the blood vessels of the mice” value [9] was “most greatly decreased”.

From US12115209B2, “ROMO1-derived antimicrobial peptides including lysine substitution and variants thereof” (KOREA UNIVERSITY RESEARCH AND BUSINESS FOUNDATION, priority 2019, dated 2024)
